Activity calls are given as the source filed them.
Key:
A549 = test: Antitumor activity against A549 cells; assay type: functional, cell-based; conditions: Homo sapiens
P388 = test: Antitumor activity against P388 cells; assay type: functional, cell-based; conditions: Mus musculus
Cladosporium cucumerinum = test: Antifungal activity against Cladosporium cucumerinum; assay type: functional, organism-based

Measured: Activity

COC(=O)[C@@]12CC(=O)[C@@H](C(C)C)CC(=O)[C@@H](C)CCC[C@@H](C)CC(=O)[C@@H]1CC(C)=C1[C@H](O)C[C@](C)(Cl)[C@H]3CC[C@@](C)(O3)[C@H](O)CC/C(C)=C/[C@H]12
inactive: A549 | P388 | Cladosporium cucumerinum

C=C1CC[C@@H]2O[C@@H]1CC/C(C)=C/[C@@H]1C(=C(C)C[C@H]3C(=O)C[C@H](C)CCC[C@H](C)C(=O)C[C@H](C(C)C)C(=O)C[C@@]13C(=O)OC)[C@H](O)C[C@@]2(C)O
inactive: A549 | P388 | Cladosporium cucumerinum

COC(=O)[C@@]12CC(=O)[C@@H](C(C)C)CC(=O)[C@@H](C)CCC[C@@H](C)CC(=O)[C@@H]1CC(C)=C1[C@H](O)C[C@@](C)(Cl)[C@@H](O)CC[C@@]3(C)O[C@@H]3CC/C(C)=C/[C@H]12
inactive: A549 | P388 | Cladosporium cucumerinum

COC(=O)/C1=C/C(=O)C[C@H](C)CCC[C@H](C)C(=O)C[C@H](C(C)C)C(=O)C1
inactive: A549 | P388 | Cladosporium cucumerinum

COC(=O)[C@@]12CC(=O)[C@@H](C(C)C)CC(=O)[C@@H](C)CCC[C@@H](C)CC(=O)[C@@H]1CC(C)=C1[C@H](O)C[C@@]3(C)O[C@@H]3CC[C@@]3(C)O[C@@H]3CC/C(C)=C/[C@H]12
inactive: A549 | P388 | Cladosporium cucumerinum

COC(=O)[C@@]12CC(=O)[C@@H](C(C)C)CC(=O)[C@@H](C)CCC[C@@H](C)/C=C3\O[C@@](C)(C[C@@H]31)/C1=C/C[C@](C)(O)[C@H]3CC[C@@](C)(O3)[C@H](O)CC/C(C)=C/[C@H]12
inactive: A549 | P388 | Cladosporium cucumerinum

— ChEMBL document CHEMBL1146213, “Biscembranoids and their probable biogenetic precursor from the Hainan soft coral Sarcophyton tortuosum” (J Nat Prod, 2007)
